Test results: paper PMC9151520 (Archives of Toxicology, 2022)
Where “and” joins values, the source holds several entries; their conditions need not be identical. Equal values may be shown once. Read-outs that look alike come from different tables or passages of the source.

What was measured:
[1] = tested on: p53 signaling (p53RE-bla HCT-116 cells)
[2] = tested on: p53RE-bla HCT-116 cells
[3] = tested on: p53 signaling (p53RE-bla HCT-116 cells); remark: listed apart in the source
[4] = tested on: p53 signaling (p53RE-bla HCT-116 cells); experiment: cells; assay type: cell-based
[5] = Homo sapiens, HCT-116, read-out: p53 activation EC50, cherry pick confirmation
[6] = Homo sapiens, HCT-116, read-out: p53 activation EC50, primary screening
[7] = Homo sapiens, HCT-116, read-out: p53 activation efficacy, cherry pick confirmation
[8] = Homo sapiens, HCT-116, read-out: p53 activation efficacy, primary screening
[9] = read-out: Viability EC50, cherry pick confirmation
[10] = read-out: p53 activation EC50, primary screening
[11] = read-out: p53 activation EC50, cherry pick confirmation

| Compound | p53 activation EC50, cherry pick confirmation [1] | p53 activation EC50, primary screening [1] | p53 activation efficacy, cherry pick confirmation [1] | p53 activation efficacy, primary screening [1] | Viability EC50, cherry pick confirmation [2] | Viability EC50, primary screening [2] | Viability efficacy, cherry pick confirmation [2] | Viability efficacy, primary screening [2] | p53 activation EC50, cherry pick confirmation [3] | p53 activation EC50, primary screening [3] | p53 activation efficacy, cherry pick confirmation [3] | p53 activation efficacy, primary screening [3] | p53 activation efficacy, cherry pick confirmation [4] | p53 activation efficacy, primary screening [4] | also measured |
| --- | --- | --- | --- | --- | --- | --- | --- | --- | --- | --- | --- | --- | --- | --- | --- |
| O=c1cc(-c2ccc(O)cc2)oc2cc(O)cc(O)c12 [Apigenin] | inactive | inactive | inactive | inactive | inactive | inactive | inactive | inactive | inactive | inactive | inactive | inactive | – | – | EC50 [4, 5]: 46.5 µM; EC50 [4, 6]: 18.2 µM; Emax [4, 7]: 32.2%; Emax [4, 8]: 51.2% |
| COc1ccc(C(=O)/C(Br)=C\C(=O)[O-])cc1.[Na+] [Cytembena] | inactive | inactive | inactive | inactive | inactive | inactive | – | inactive | inactive | inactive | inactive | inactive | inactive | 55.202 | EC50 [2, 9]: 43.2 µM; p53 activation EC50, cherry pick confirmation [4]: inactive; EC50 [4, 10]: 21 µM |
| Cc1cccc2sc3nncn3c12 [2,7,8,9-Tricyclazole] | – | – | – | – | – | – | – | – | – | – | – | – | – | – | p53 activation EC50 [1]: inactive; Viability EC50 [2]: inactive; Viability efficacy [2]: inactive; p53 activation EC50 [3]: inactive; p53 activation EC50 [4]: inactive; p53 activation efficacy [4]: inactive |
| PharmaGSID_48505 | inactive | inactive | inactive | inactive | inactive | inactive | inactive | inactive | inactive | inactive | inactive | inactive | 67.8753 | 66.729 | EC50 [4, 11]: 2.82 µM; EC50 [4, 10]: 0.396 µM |
| Demeton | – | – | – | – | inactive | inactive | inactive | inactive | inactive | – | – | – | inactive | inactive | EC50 [1]: 1910 nM; EC50 [1, 11]: 1700 nM; p53 activation EC50, cherry pick confirmation [4]: inactive; p53 activation EC50, primary screening [4]: inactive |
| CCOP(=O)(OCC)Oc1ccc([N+](=O)[O-])cc1 [Paraoxon] | inactive | – | inactive | – | inactive | inactive | inactive | inactive | inactive | – | inactive | – | inactive | inactive | p53 activation EC50, cherry pick confirmation [4]: inactive; p53 activation EC50, primary screening [4]: inactive |
| O=C(Nc1cccc(C(F)(F)F)c1)c1cc(Br)cc(Br)c1O [Fluorosalan] | – | – | – | – | – | – | – | – | – | – | – | – | – | – | EC50, p53 activation, cherry pick confirmation [1]: inactive; EC50, p53 activation, primary screening [1]: inactive; Efficacy, p53 activation, cherry pick confirmation [1]: inactive; Efficacy, p53 activation, primary screening [1]: inactive; EC50, viability, cherry pick confirmation [2]: inactive; EC50, viability, primary screening [2]: inactive; Efficacy, viability, cherry pick confirmation [2]: inactive; Efficacy, viability, primary screening [2]: inactive; EC50, p53 activation, cherry pick confirmation [3]: inactive; EC50, p53 activation, primary screening [3]: inactive; Efficacy, p53 activation, cherry pick confirmation [3]: inactive; Efficacy, p53 activation, primary screening [3]: inactive; EC50 ([4]; Homo sapiens, HCT-116, read-out: EC50, p53 activation, cherry pick confirmation): 27.3 µM; EC50 ([4]; Homo sapiens, HCT-116, read-out: EC50, p53 activation, primary screening): 17.6 µM; Emax ([4]; Homo sapiens, HCT-116, read-out: Efficacy, p53 activation, cherry pick confirmation): 47.5%; Emax ([4]; Homo sapiens, HCT-116, read-out: Efficacy, p53 activation, primary screening): 33.3% |
| Nc1ncn([C@@H]2O[C@H](CO)[C@@H](O)[C@H]2O)c(=O)n1 [5-Azacytidine] | inactive | inactive | inactive | inactive | inactive | inactive | inactive | inactive | inactive | inactive | inactive | inactive | 71.649 | 59.244 | EC50 [4, 11]: 17.7 µM; EC50 [4, 10]: 11.2 µM |
| C[C@]12CC[C@@H]3c4ccc(O)cc4CC[C@H]3[C@@H]1CC[C@H]2O [17alpha-Estradiol] | inactive | inactive | inactive | inactive | inactive | inactive | inactive | inactive | inactive | inactive | inactive | inactive | inactive | – | p53 activation EC50, cherry pick confirmation [4]: inactive; EC50 [4, 6]: 12.3 µM; Emax [4, 8]: 54.4% |
| CC(=O)Oc1ccc(C2(c3ccc(OC(C)=O)cc3)Oc3ccccc3NC2=O)cc1 [Bisoxatin acetate] | inactive | inactive | inactive | inactive | inactive | inactive | inactive | inactive | inactive | inactive | inactive | inactive | – | – | EC50 [4, 5]: 0.665 µM; EC50 [4, 6]: 3.99 µM; Emax [4, 7]: 31.4%; Emax [4, 8]: 63.9% |
| Chlorpyrifos oxon | – | – | – | – | – | – | – | – | – | – | – | – | – | – | EC50 [1]: 20 nM; p53 activation efficacy [1]: 33.1727 and 49.6483; Viability EC50 [2]: inactive; Viability efficacy [2]: inactive; p53 activation EC50 [3]: inactive; EC50 ([3]; read-out: p53 activation EC50): 2910 nM; p53 activation EC50 [4]: inactive; p53 activation efficacy [4]: inactive |
| CCS(=O)(=O)CCSP(=O)(OC)OC [Demeton-S-methylsulphon] | – | – | – | – | – | – | – | – | – | – | – | – | – | – | EC50 [1]: 11800 nM; p53 activation efficacy [1]: 41.936 and 34.343; Viability EC50 [2]: inactive; Viability efficacy [2]: inactive; p53 activation EC50 [3]: inactive; p53 activation EC50 [4]: inactive; p53 activation efficacy [4]: inactive |
| Potassium dichromate | inactive | inactive | inactive | inactive | inactive | inactive | – | – | inactive | inactive | inactive | inactive | – | 47.8443 | EC50 [2, 9]: 34.6 µM and 20.2 µM; EC50 ([2]; read-out: Viability EC50, primary screening): 21.3 µM and 31 µM; EC50 [4, 11]: 14.9 µM; EC50 [4, 10]: 8.27 µM |
| CC[C@@]1(O)C(=O)OCc2c1cc1n(c2=O)Cc2c-1nc1ccccc1c2/C=N/OC(C)(C)C [Gimatecan] | inactive | inactive | inactive | inactive | inactive | inactive | inactive | inactive | inactive | inactive | inactive | inactive | – | – | EC50 [4, 5]: 0.345 µM; EC50 [4, 6]: 0.118 µM; Emax [4, 7]: 257%; Emax [4, 8]: 118% |
